PubChem BioAssay AID256 (DTP/NCI, 2004)
“And” between values parts separate entries of the source, which are not always exact repeats. Identical values can stand only once. Inconclusive results and toxic doses are left out. How the source made its calls: active means survival T/C of 150% or more; inactive means T/C below 125% in these data.

Tested on: CD2F1 mice, L1210 leukemia ip, survival T/C
Test: NCI In Vivo Anticancer Drug Screen. Data for tumor model L1210 Leukemia (intraperitoneal) in CD2F1 (CDF1) mice
Conditions: higher = longer survival
Outline: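 Transplantable tumor in mice; compound-treated vs vehicle-treated groups. Read-out = treated/control ratio of the measured endpoint.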

[1] = endpoint: mean survival time, dose: 1.25 mg/kg/injection, schedule: Q01DX009 (ip), vehicle: saline with Tween-80
[2] = endpoint: mean survival time, dose: 2.5 mg/kg/injection, schedule: Q01DX009 (ip), vehicle: saline with Tween-80
[3] = endpoint: median survival time, dose: 50.0 mg/kg/injection, schedule: Q01DX009 (ip), vehicle: saline with Tween-80
[4] = endpoint: mean survival time, dose: 100.0 mg/kg/injection, schedule: Q04DX003 (ip), vehicle: saline with Tween-80
[5] = endpoint: mean survival time, dose: 200.0 mg/kg/injection, schedule: Q04DX003 (ip), vehicle: saline with Tween-80
[6] = endpoint: mean survival time, dose: 400.0 mg/kg/injection, schedule: Q04DX003 (ip), vehicle: saline with Tween-80
[7] = endpoint: mean survival time, dose: 100.0 mg/kg/injection, schedule: Q01DX009 (ip), vehicle: saline with Tween-80
[8] = endpoint: mean survival time, dose: 200.0 mg/kg/injection, schedule: Q01DX009 (ip), vehicle: saline with Tween-80
[9] = endpoint: mean survival time, dose: 400.0 mg/kg/injection, schedule: Q01DX009 (ip), vehicle: saline with Tween-80
[10] = endpoint: mean survival time, dose: 100.0 mg/kg/injection, schedule: Q04DX002 (ip), vehicle: saline with Tween-80
[11] = endpoint: mean survival time, dose: 25.0 mg/kg/injection, schedule: Q01DX009 (ip), vehicle: saline with Tween-80
[12] = endpoint: mean survival time, dose: 50.0 mg/kg/injection, schedule: Q01DX009 (ip), vehicle: saline with Tween-80
[13] = endpoint: mean survival time, dose: 100.0 mg/kg/injection, schedule: Q01DX001 (ip), vehicle: saline

Measured: T/C

C=C1C(=O)OCC2CCCCC12C (configuration not stated)
inactive: [1] 98 % of control | [2] 101 % of control | endpoint: mean survival time, dose: 5.0 mg/kg/injection, schedule: Q01DX009 (ip), vehicle: saline with Tween-80 101 % of control | endpoint: mean survival time, dose: 10.0 mg/kg/injection, schedule: Q01DX009 (ip), vehicle: saline with Tween-80 98 % of control

Cc1cc(Br)c2nsnc2c1[N+](=O)[O-]
inactive: endpoint: median survival time, dose: 25.0 mg/kg/injection, schedule: Q01DX009 (ip), vehicle: saline with Tween-80 97 % of control | [3] 100 % of control | endpoint: median survival time, dose: 100.0 mg/kg/injection, schedule: Q01DX009 (ip), vehicle: saline with Tween-80 101 % of control | endpoint: median survival time, dose: 200.0 mg/kg/injection, schedule: Q01DX009 (ip), vehicle: saline with Tween-80 100 % of control | endpoint: median survival time, dose: 400.0 mg/kg/injection, schedule: Q01DX009 (ip), vehicle: saline with Tween-80 101 % of control

CCc1c(Br)c(CC)c(Br)c(CC)c1Br
inactive: [4] 98 % of control | [5] 97 % of control | [6] 98 % of control

CC1CC(C)(C)N=C(CC(=O)N2Cc3cc4ccccc4nc3C2)O1 (configuration not stated)
inactive: endpoint: mean survival time, dose: 100.0 mg/kg/injection, schedule: Q01DX001 (ip), vehicle: saline with Tween-80 96 % of control | endpoint: mean survival time, dose: 200.0 mg/kg/injection, schedule: Q01DX001 (ip), vehicle: saline with Tween-80 104 % of control | endpoint: mean survival time, dose: 400.0 mg/kg/injection, schedule: Q01DX001 (ip), vehicle: saline with Tween-80 96 % of control

Nc1cccc(N2N=C(C(=O)O)CC2=O)c1
inactive: [7] 90 % of control | [4] 103 % of control | [8] 91 % of control | [5] 103 % of control | [9] 91 % of control | [6] 101 % of control

O=[N+]([O-])c1ccc(N=C(Cl)c2ccccc2)cc1
inactive: [7] 101 % of control | [8] 104 % of control | [9] 104 % of control

c1ccc(C[P+](c2ccccc2)(c2ccccc2)c2ccccc2)cc1
inactive: endpoint: mean survival time, dose: 0.63 mg/kg/injection, schedule: Q01DX009 (ip), vehicle: saline with Tween-80 89 % of control | [1] 100 % of control | [2] 93 % of control

CN=C(N)N/N=C(\C)c1ccc2oc3ccc(/C(C)=N/NC(N)=NC)cc3c2c1
inactive: endpoint: median survival time, dose: 4.7 mg/kg/injection, schedule: Q01DX009 (ip), vehicle: saline with Tween-80 123 % of control | endpoint: median survival time, dose: 6.25 mg/kg/injection, schedule: Q01DX009 (ip), vehicle: saline with Tween-80 117 % of control | endpoint: median survival time, dose: 9.38 mg/kg/injection, schedule: Q01DX009 (ip), vehicle: saline with Tween-80 121 % of control | endpoint: median survival time, dose: 12.5 mg/kg/injection, schedule: Q01DX009 (ip), vehicle: saline with Tween-80 123 % of control | [3] 122 % of control | endpoint: median survival time, dose: 75.0 mg/kg/injection, schedule: Q01DX009 (ip), vehicle: saline with Tween-80 90 % of control

OC1CCCN(c2c3ccccc3nc3ccccc23)C1 (configuration not stated)
inactive: [10] 100 % of control | endpoint: mean survival time, dose: 200.0 mg/kg/injection, schedule: Q04DX002 (ip), vehicle: saline with Tween-80 92 % of control | endpoint: mean survival time, dose: 400.0 mg/kg/injection, schedule: Q04DX002 (ip), vehicle: saline with Tween-80 100 % of control

Nc1nc(N)c(N=Nc2ccc(S(=O)(=O)c3ccc(N=Nc4c(N)nc(N)[nH]c4=O)cc3)cc2)c(=O)[nH]1
inactive: [7] 102 % of control | [8] 92 % of control | [9] 92 % of control

c1ccc2c(c1)nnc1ccccc12
inactive: [7] 100 % of control | [8] 110 % of control | [9] 110 % of control

CC(=O)Oc1ccc(Cl)cc1
inactive: [7] 95 % of control | [4] 103 % of control | [8] 98 % of control | [5] 89 % of control | [6] 89 % of control

Oc1ccc(Sc2ccc(O)cc2O)c(O)c1
inactive: endpoint: mean survival time, dose: 100.0 mg/kg/injection, schedule: Q04DX003 (ip), vehicle: saline 101 % of control | endpoint: mean survival time, dose: 200.0 mg/kg/injection, schedule: Q04DX003 (ip), vehicle: saline 103 % of control | endpoint: mean survival time, dose: 400.0 mg/kg/injection, schedule: Q04DX003 (ip), vehicle: saline 93 % of control

c1ccc(Sc2ccncc2)cc1
inactive: endpoint: mean survival time, dose: 25.0 mg/kg/injection, schedule: Q04DX002 (ip), vehicle: saline with Tween-80 102 % of control | endpoint: mean survival time, dose: 50.0 mg/kg/injection, schedule: Q04DX002 (ip), vehicle: saline with Tween-80 91 % of control | [10] 98 % of control and 105 % of control

COc1nc(NC2OCC(O)C(O)C2O)c(I)c(=O)n1C (configuration not stated)
inactive: endpoint: median survival time, dose: 12.5 mg/kg/injection, schedule: Q01DX005 (ip), vehicle: saline with Tween-80 101 % of control | endpoint: median survival time, dose: 25.0 mg/kg/injection, schedule: Q01DX005 (ip), vehicle: saline with Tween-80 100 % of control | endpoint: median survival time, dose: 50.0 mg/kg/injection, schedule: Q01DX005 (ip), vehicle: saline with Tween-80 100 % of control | endpoint: median survival time, dose: 100.0 mg/kg/injection, schedule: Q01DX005 (ip), vehicle: saline with Tween-80 101 % of control | endpoint: median survival time, dose: 200.0 mg/kg/injection, schedule: Q01DX005 (ip), vehicle: saline with Tween-80 100 % of control

OCC1OC(n2cnc3c2[nH]c(=S)n2ccnc32)C(O)C1O (configuration not stated)
inactive: endpoint: mean survival time, dose: 12.5 mg/kg/injection, schedule: Q01DX005 (ip), vehicle: water 96 % of control | endpoint: mean survival time, dose: 25.0 mg/kg/injection, schedule: Q01DX005 (ip), vehicle: water 101 % of control | endpoint: mean survival time, dose: 50.0 mg/kg/injection, schedule: Q01DX005 (ip), vehicle: water 96 % of control | endpoint: mean survival time, dose: 100.0 mg/kg/injection, schedule: Q01DX005 (ip), vehicle: water 101 % of control | endpoint: mean survival time, dose: 200.0 mg/kg/injection, schedule: Q01DX005 (ip), vehicle: water 101 % of control

COc1ccc(OC)cc1
inactive: endpoint: mean survival time, dose: 100.0 mg/kg/injection, schedule: Q01DX001 (ip), vehicle: other 103 % of control | endpoint: mean survival time, dose: 200.0 mg/kg/injection, schedule: Q01DX001 (ip), vehicle: other 94 % of control | endpoint: mean survival time, dose: 400.0 mg/kg/injection, schedule: Q01DX001 (ip), vehicle: other 101 % of control

CCCCCCCCCCCCN(C)C
inactive: [11] 92 % of control | endpoint: mean survival time, dose: 25.0 mg/kg/injection, schedule: Q04DX003 (ip), vehicle: saline with Tween-80 97 % of control | endpoint: mean survival time, dose: 50.0 mg/kg/injection, schedule: Q01DX001 (ip), vehicle: saline 96 % of control | [12] 92 % of control | endpoint: mean survival time, dose: 50.0 mg/kg/injection, schedule: Q04DX003 (ip), vehicle: saline with Tween-80 100 % of control | [13] 100 % of control | [4] 102 % of control

ClC1CC[N-]CC1.ClC1CC[N-]CC1.O=C(O)CC(=O)O.[Pt+2]
inactive: endpoint: mean survival time, dose: 12.5 mg/kg/injection, schedule: Q01DX009 (ip), vehicle: saline with Tween-80 96 % of control | [11] 94 % of control | [12] 102 % of control | [7] 104 % of control | [8] 96 % of control

O=C(Nc1cccc2ccccc12)N(c1ccccc1)c1ccccc1
inactive: [13] 105 % of control | endpoint: mean survival time, dose: 200.0 mg/kg/injection, schedule: Q01DX001 (ip), vehicle: saline 96 % of control | endpoint: mean survival time, dose: 400.0 mg/kg/injection, schedule: Q01DX001 (ip), vehicle: saline 94 % of control

COc1ccc(OC)c(NC(=O)NCc2ccccc2Cl)c1
inactive: [7] 90 % of control | [8] 100 % of control | [9] 87 % of control

CC(=O)CC(=O)OCOC(=O)CC(C)=O
inactive: endpoint: mean survival time, dose: 100.0 mg/kg/injection, schedule: Q04DX003 (ip), vehicle: Klucel (hydroxypropylcellulose) (HPC) 102 % of control | endpoint: mean survival time, dose: 200.0 mg/kg/injection, schedule: Q04DX003 (ip), vehicle: Klucel (hydroxypropylcellulose) (HPC) 106 % of control | endpoint: mean survival time, dose: 400.0 mg/kg/injection, schedule: Q04DX003 (ip), vehicle: Klucel (hydroxypropylcellulose) (HPC) 106 % of control
